Measurements taken from patent EP2298282B1, “COMBINATION OF DRUGS HAVING DIFFERENT PHYSICAL PROPERTIES INTO SINGLE DOSAGE FORM” (Cocokara fine Healthcare Inc., priority 2008, dated 2009).

Assays:
Assay type in all cases: physicochemical
[1] = Dispersion in olive oil together with vitamin E (VE)
Description: The VC·PMg-surfactant composite (VC·PMg-LipoS, 5g) obtained in Production Example 12 and 0.5 g of vitamin E (VE) were dispersed in 1 kg of olive oil with the use of an agitation blade, and a clear homogeneous solution was obtained. This homogeneous solution was subjected to plastic filling with the use of a rotary soft capsule filling machine in constant amounts of 0.4 g, and soft capsules containing VC·PMg and VE with high content uniformity were obtained. Soft capsules could be produced in a twist-off form as well as in a general oval form. Similarly, constant amounts of 0.1 g were subjected to plastic filling with the use of a seamless soft capsule filling machine to obtain soft capsules containing VC·PMg and VE with high content uniformity. […] In this case, VC·PMg remained suspended in the solution. […] The formed soft capsules were packaged in easy-peel blister packs composed of a plastic film and an aluminum film. Thus, products that allow soft capsules with a low degree of hardness to be easily removed and are clean and easy to carry were obtained. Soft capsules were also packaged in press-through blister packs.

[2] = Dispersion in aqueous 0.4% Carbopol solution (electrode gel solution for iontophoresis)
Procedure: Carbopol (Carbopol 940, manufactured by B. F. Goodrich, 0.2 g) was dissolved in 0.3% citrate buffer (pH 6). The pH level of this solution was adjusted at 6 with sodium hydroxide to bring the total amount of the solution to 50 g, and a solution of 0.4% Carbopol (hereafter referred to as an "aqueous 0.4% Carbopol solution") was obtained. The CoQ10-surfactant composite (CoQ10-HydroS, 5 g) obtained in Production Example 14 was dispersed in 50 g of an aqueous 0.4% Carbopol solution with the use of an agitation blade, and a clear homogeneous solution was obtained (hereafter referred to as an "aqueous 0.4% Carbopol solution containing CoQ10-HydroS").
In this case, CoQ10 remained suspended in the solution. […] Thus, CoQ10, which is a low-solubility, nutritional factor, was prepared in the form of a CoQ10-surfactant composite (CoQ10-HydroS), and an aqueous solution for an electrode gel containing a nutritional factor for iontophoresis homogeneously dispersed/dissolved in water was obtained.

[3] = Long-term stability (2-year) at room temperature, browning; conditions: stored at room temperature for 2 years
Description: Long-term stability (2-year) was inspected at room temerature using S/O VC·PMg obtained in Production Example 5. A non-S/O VC·PMg solution was used as a positive control, and a dispersion medium used for S/O preparation was used as a negative control.
The photograph shown in Fig. 6 was stored at room temperature for 2 years.

## O=C1O[C@H]([C@@H](O)CO)C([O-])=C1OP(=O)([O-])[O-].O=C1O[C@H]([C@@H](O)CO)C([O-])=C1OP(=O)([O-])[O-].[Mg+2].[Mg+2].[Mg+2] [VC·PMg, magnesium ascorbyl phosphate]
[1]; dispersed with 0.5 g VE in 1 kg of olive oil
  appearance of the dispersion: a clear solution was not obtained
[1]; with 0.5 g VE in 1 kg of olive oil containing 4.5 g ER-290, allowed to stand
  appearance when allowed to stand: a precipitate was observed

## COC1=C(OC)C(=O)C(C/C=C(\C)CC/C=C(\C)CC/C=C(\C)CC/C=C(\C)CC/C=C(\C)CC/C=C(\C)CC/C=C(\C)CC/C=C(\C)CC/C=C(\C)CCC=C(C)C)=C(C)C1=O [CoQ10, ubiquinone]
[2]; dispersed in 50 g of aqueous 0.4% Carbopol solution (pH 6)
  appearance of the dispersion: a clear solution was not obtained
[2]; in 50 g of aqueous 0.4% Carbopol solution containing 4.5 g of SLS, allowed to stand
  appearance when allowed to stand: a precipitate was observed

## O=C1O[C@H]([C@@H](O)CO)C([O-])=C1OP(=O)([O-])[O-].O=C1O[C@H]([C@@H](O)CO)C([O-])=C1OP(=O)([O-])[O-].[Mg+2].[Mg+2].[Mg+2] [VC·PMg solution, magnesium ascorbyl phosphate]
[3]
  browning: browned with the elapse of time
